Test results taken from patent US20150133493A1, “COUMARIN-BASED COMPOUNDS FOR THE TREATMENT OF ALZHEIMER'S DISEASE AND CANCER” (Sloan-Kettering Institute for Cancer Research, priority 2008, published 2015).
Entries after “also recorded” stand apart in the source; their conditions may differ.

What was measured:
γ-secretase = target: T1, γ-secretase (Homo sapiens, UniProt P49768); assay: In vitro γ-secretase activity assay, Aβ42 production (ECL); assay type: biochemical; conditions: in words
T1 construct: endogenous in cells
Protocol: FIG. 2. In vitro characterization of coumarin-dimer allosteric GSIs against various γ-secretase cleavage products. […] The IC50 values were calculated from the dose response curves using a non-linear regression analysis in Prism software. […] The three β-amyloid-detection in vitro assays were modified from our previously reported assay (21) using a biotinylated substrate that eliminated the requirement of anti-β-amyloid biotinylated antibody. Ruthenylated antibodies that detected the -40, -42, or -38 cleavage site were incorporated to detect proteolysis indicative of γ-secretase activity. In vitro Notch assay utilized a recombinant transmembrane portion of the Notch peptide and anti-Notch1 SM320 antibody in conjunction with ruthenylated anti-rabbit secondary antibodies. Electrochemiluminescence was quantified on an Analyzer (BioVeris).
Briefly, recombinant peptide substrate was incubated with γ-secretase (40 μg/ml) in the presence or absence of test compound. […] The reaction was incubated for 2.5 hr at 37° C. and stopped by adding RIPA buffer (150 mM NaCl, 1.0% NP-40, 0.5% sodium deoxycholate, 0.1% SDS, 50 mM Tris HCl, pH 8.0). […] The amount of product was determined using synthetic peptide or recombinant standards.
Cell membranes and solubilized γ-secretase were prepared as described previously (36). The in vitro and cell γ-secretase assays detecting either Aβ38, Aβ40, or Aβ42 cleavage were performed similar as previously described (21, 36). Cleaved product was detected using ruthenylated antibodies that recognize specific APP cleavage sites (Aβ31-38*, G2-10*, or G2-11* antibody for Aβ38, Aβ40, or Aβ42 respectively). The Km and Vmax in the presence and absence of γ-secretase inhibitors were analyzed by non-linear curve fit using the software SigmaPlot 8.0 with the Michaelis-Menten equation (v=Vm [S]/(Km+[S]; v: initial rate; Vm: maximum velocity; Km: the Michaelis-Menten constant, S: substrate).

γ-secretase active site = target: T2, γ-secretase active site (Homo sapiens, UniProt P49768); assay: Photolabeling of the γ-secretase active site (PS1-NTF) in HeLa membrane with probes L646, GY4, JC8, L505; assay type: binding; conditions: L458 and Compound E at 2 μM, CS-1 up to 100 μM
T2 construct: endogenous in cells; host or cells: HeLa membrane
Protocol: FIG. 4. Kinetic analysis of allosteric GSIs and evaluation of their effect on the γ-secretase active site architecture. (a) Kinetic analysis of CS1 was performed using our modified version of a previously reported in vitro γ-secretase activity assay. The inhibition kinetics were analyzed by using a non-linear curve fit with the Michaelis-Menten equation. Upper right inset: we replotted slopes against the inhibitor concentrations after performing double reciprocal conversion. (b) Schematic representation of the allosteric binding of the di-coumarin compounds to γ-secretase. This binding ultimately causes an alteration at the active site of γ-secretase. Black rectangle represents the coumarin-dimer compound. (c) The binding of L458 to the active site of γ-secretase and its interaction at various subpockets within the enzyme. (d) Chemical structure of the four photoaffinity probes utilized in the characterization of CS-1 effect on active site architecture. Hydroxyethylamine and benzophenone moieties are marked by blue and red, respectively. (e) Evaluation of CS-1 effect on the photolabeling of four probes. […] (f) Evaluation of CS-2 effect on the active site photolabeling by L505 and GY4. (g) Effect of Compound E on active site photolabling. […] Blotting was performed for PS1-NTF. The photolabeling blots are representative and were performed in triplicate.
We hypothesized that the allosteric binding of the di-coumarin compounds alters the conformation of the active site of γ-secretase and thereby preferentially affects the Aβ42 site cleavage (FIG. 4b). This raised the technical issue of how to probe the contours of the enzymatic active site. Although the structure of γ-secretase has been determined by cryoelectron microscopy (23), the resolution attained is not sufficient to investigate subtle changes within the active site. Consequently, we developed a series of active-site directed inhibitors that incorporate a photoreactive benzophenone entity into varied positions. Using these photoreactive probes, we assessed the effect of the di-coumarin inhibitor binding on the active site of γ-secretase. Since the efficiency of photoinsertion depends on the orientation of the probe and the proximity of residues within the active site, conformational change of the active site can alter the orientation of the probe and contact residues and lead to altered cross-linking efficiencies. Therefore, multiple photoactivatable, active-site directed GSIs will provide a practical approach to evaluate the changes within the active site following allosteric di-coumarin binding.
L458 contains a hydroxyethylamine transition-state isostere that mimics the tetrahedral intermediate of aspartyl proteases and this moiety hydrogen bonds with the catalytic aspartate residues of γ-secretase (20). According to the nomenclature of Schechter and Berger (24), L458 contains the P2, P1, P1′, P2′ and P3′ residues that putatively bind to the S2, S1, S1′, S2′ and S3′ subsites, respectively, within the active site of γ-secretase (FIG. 4c). We have developed a series of biotinylated, photoactivatable inhibitors based on the core structure of L458 that allow us to probe the sub-pockets of the γ-secretase active site (3, 25-26). These inhibitors all have an individual benzophenone group incorporated into L458 at either the P2, P1, P1′, or P3′ position and are referred to as L646, GY4, JC8 and L505 (FIG. 4d). Each of these inhibitors interacts and labels the S2, S1, S1′, and S3′ subsites, respectively, within the γ-secretase complex (FIG. 4c-d).
HeLa membrane was incubated with CHAPSO detergent and photoaffinity probe in the presence or absence of excess L458 or CS-1. Labeled presenilin was isolated using streptavidin beads, separated by SDS-PAGE and subsequently western blotted using anti-PS1-NTF antibodies. Again, presenilin is believed to contain the active site of γ-secretase, therefore we examined PS1 photolabeling. […]

C[C@H](NC(=O)Cc1cc(F)cc(F)c1)C(=O)N[C@H]1N=C(c2ccccc2)c2ccccc2N(C)C1=O [Compound E]
inhibitory potency and selectivity against γ-secretase cleavage activities in vitro (γ-secretase): did not exhibit any significant selectivity
effect on JC-8 photolabeling of PS1-NTF (S1′ subsite) (γ-secretase active site): completely suppressed; also recorded: nonselectively blocked
effect on L646 photolabeling of PS1-NTF (S2 subsite) (γ-secretase active site): completely suppressed; also recorded: nonselectively blocked
effect on GY-4 photolabeling of PS1-NTF (S1 subsite) (γ-secretase active site; CS-2 at 100 μM): completely suppressed; also recorded: nonselectively blocked
effect on L505 photolabeling of PS1-NTF (S3′ subsite) (γ-secretase active site; CS-2 at 100 μM): completely suppressed; also recorded: nonselectively blocked
